Results on two compounds are retold here after patent US5719278A, “Tricyclic benzazepine vasopressin antagonists” (American Cyanamid Company, priority 1996, dated 1998).

The target in assay [1] is T1, Rat Kidney Medullary V2 Receptors (Rattus norvegicus, UniProt Q00788).
T1 construct: Medullary tissues from rat kidneys are dissected out; from tissue; host or cells: rat kidney medulla membranes
Kind of assay: Binding Assay to Rat Kidney Medullary V2 Receptors. Conditions: Rat Kidney Medullary V2 Receptors (no asterisk). The procedure: Binding Assay to Rat Kidney Medullary V2 Receptors
Medullary tissues from rat kidneys are dissected out, cut into small pieces and let soak in a […] sodium chloride solution containing 1.0 mM EDTA with many changes of the liquid phase, until the solution is clear of blood. The tissue is homogenized in a 0.25M sucrose solution containing 1.0 mM EDTA and 0.1 mM PMSF using a Potter-Elvehjem homogenizer with a teflon pestle. The homogenate is filtered through several layers (4 layers) of cheese cloth. The filtrate is rehomogenized using a dounce homogenizer, with a tight fitting pestle. The final homogenate is contrifuged at 1500×g for 15 min. The nuclear pellet is discarded and the supernatant fluid recentrifuged at 40,000×g for 30 min. The resulting pellet formed contains a dark inner part with the exterior, slightly pink. The pink outer part is suspended in a small amount of 50.0 mM Tris.HCl buffer, pH 7.4. The protein content is determined by the Lowry's method (Lowry et al, J. Biol. Chem., 1953). The membrane suspension is stored at -70° C., in 50.0 mM Tris.HCl, containing 0.2% inactivated BSA and 0.1 mM PMSF in aliquots of 1.0 ml containing 10.0 mg protein per ml of suspension until use in subsequent binding experiments.
For binding experiments, the following is added in μl volume to wells of a 96 well format of a microtiter plate: 100.0 μl of 100.0 mM Tris.HCl buffer containing 0.2% heat inactivated BSA, 10.0 mM MgCl2 and a mixture of protease inhibitors: leupeptin, 1.0 mg %; aprotinin, 1.0 mg %; 1,10-phenanthroline, 2.0 mg %; trypsin inhibitor, 10.0 mg % and 0.1 mM PMSF, 20.0 μl of [^3 H]Arginine^8, vasopressin (S.A. 75.0 Ci/mmole) at 0.8 nM and the reaction initiated by the addition of 80.0 μl of tissue membranes (200.0 μg tissue protein). The plates are left undisturbed on the bench top for 120 min. to reach equilibrium. Non-specific binding is assessed in the presence of 1.0 μM of unlabeled ligand, added in 20 μl volume. For test compounds, these are solubilized in 50% dimethylsulfoxide (DMSO) and added in 20.0 μl volume to a final incubation volume of 200 μl. Upon completion of binding, the content of each well is filtered off, using a Brandel® cell Harvester (Gaithersburg, Md.). The radioactivity trapped on the filter disk by the ligand-receptor complex is assessed by liquid scintillation counting in a Packard LS Counter, with an efficiency of 65% for tritium. The data are analyzed for IC50 values by the LUNDON-2 program for competition (LUNDON SOFTWARE, Ohio).

In assay [2] the target is T2, oxytocin receptors (Rattus norvegicus, UniProt P70536).
T2 construct: The uteri are dissected out, cleaned of fat and connective tissues; from tissue; host or cells: uterus of DES-treated female Sprague-Dawley rats
T2 sequence (P70536 1-388): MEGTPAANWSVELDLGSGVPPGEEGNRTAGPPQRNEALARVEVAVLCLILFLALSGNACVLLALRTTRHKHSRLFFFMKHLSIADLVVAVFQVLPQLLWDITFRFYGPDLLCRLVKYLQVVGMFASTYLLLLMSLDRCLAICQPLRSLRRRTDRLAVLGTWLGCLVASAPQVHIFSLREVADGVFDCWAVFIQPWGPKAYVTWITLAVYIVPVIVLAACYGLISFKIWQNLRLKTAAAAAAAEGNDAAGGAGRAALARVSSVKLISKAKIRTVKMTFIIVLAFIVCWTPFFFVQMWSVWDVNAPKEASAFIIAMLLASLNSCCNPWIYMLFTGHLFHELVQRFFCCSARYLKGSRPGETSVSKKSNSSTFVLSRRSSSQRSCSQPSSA
Kind of assay: Oxytocin Receptor Binding. Conditions: for IC50: 1.0 nM [^3 H]OT, 60 min., 22° C. Details: species or system Sprague-Dawley rat. How it is done:
Oxytocin Receptor Binding
Female Sprague-Dawley rats weighing approximately 200-250 g are injected intramuscularly (i.m.) with 0.3 mg/kg of body weight of diethylstilbestrol (DES). The rats are sacrificed 18 hours later under pentobarbital anesthesia. The uteri are dissected out, cleaned of fat and connective tissues and rinsed in 50 ml of normal saline. The tissue pooled from six rats is homogenized in 50 ml of […] TriS.HCl, containing 0.5 mM dithiothreitol and 1.0 mM EDTA, adjusted to pH 7.4, using a polytron at setting 6 with three passes of 10 sec each. The homogenate is passed through two (2) layers of cheesecloth and the filtrate contrifuged at 1000×g for 10 min. The clear supernatant is removed and recentrifuged at 165,000×g for 30 min. The resulting pellet containing the oxytocin receptors is resuspended in 50.0 mM Tris.HCl containing 5.0 mM MgCl2 at pH 7.4, to give a protein concentration of 2.5 mg/ml of tissue suspension. This preparation is used in subsequent binding assays with [^3 H]Oxytocin.
Binding of 3,5-[^3 H]Oxytocin ([^3 H]OT) to its receptors is done in microtiter plates using [^3 H]OT, at various concentrations, in an assay buffer of 50.0 mM Tris.HCl, pH 7.4 and containing 5.0 mM MgCl2, and a mixture of protease inhibitors: BSA, 0.1 mg; aprotinin, 1.0 mg; 1,10-phenanthroline, 2.0 mg; […], 10.0 mg; and PMSF, 0.3 mg per 100 ml of buffer solution. Non-specific binding is determined in the presence of 1.0 uM unlabeled OT. The binding reaction is terminated after 60 min., at 22° C., by rapid filtration through glass fiber filters using a Brandel® cell harvester (Biomedical Research and Development Laboratories, Inc., Gaithersburg, Md.). Competition experiments are conducted at equilibrium using 1.0 nM [^3 H]OT and varying the concentration of the displacing agents. The concentrations of agent displacing 50% of [^3 H]OT at its sites (IC50) are calculated by a computer assisted LUNDON-2 program (LUNDON SOFTWARE INC., Ohio, U.S.A.).

In assay [3] the target is T3, Rat Hepatic V1 Receptors (Rattus norvegicus, UniProt P30560).
T3 construct: Rat liver plasma membranes expressing the vasopressin V1 receptor subtypes; from tissue; host or cells: rat liver plasma membranes
T3 sequence (P30560 whole entry): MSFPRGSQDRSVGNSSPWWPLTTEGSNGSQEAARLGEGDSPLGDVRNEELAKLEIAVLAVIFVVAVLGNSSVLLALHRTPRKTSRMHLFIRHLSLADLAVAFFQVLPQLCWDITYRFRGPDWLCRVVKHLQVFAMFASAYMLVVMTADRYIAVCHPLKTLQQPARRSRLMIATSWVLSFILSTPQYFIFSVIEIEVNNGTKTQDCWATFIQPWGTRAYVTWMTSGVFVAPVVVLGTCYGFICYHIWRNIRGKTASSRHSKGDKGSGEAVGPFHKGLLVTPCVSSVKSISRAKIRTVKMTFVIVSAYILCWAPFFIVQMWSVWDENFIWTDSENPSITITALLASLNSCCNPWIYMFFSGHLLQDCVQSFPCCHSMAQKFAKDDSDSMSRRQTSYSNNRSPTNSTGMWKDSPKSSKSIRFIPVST
Kind of assay: Binding Assay to Rat Hepatic V1 Receptors. The settings on record: Rat Hepatic V1 Receptors (no asterisk). How it is done:
Binding Assay to Rat Hepatic V1 Receptors
Rat liver plasma membranes expressing the vasopressin V1 receptor subtypes are isolated by sucrose density gradient according to the method described by Lesko et al., (1973). These membranes are quickly suspended in 50.0 mM Tris.HCl buffer, pH 7.4, containing 0.2% bovine serum albumin (BSA) and 0.1 mM phenylmethylsulfonylfluoride (PMSF) and kept frozen at -70° C. until used in subsequent binding experiments. For binding experiments, the following is added to the wells of a ninety-six well format microtiter plate: 100 μl of 100.0 mM Tris.HCl buffer containing 10.0 mM MgCl2, 0.2% heat inactivated BSA and a mixture of protease inhibitors: leupeptin, 1.0 mg %; aprotinin, 1.0 mg %, 1,10-phenanthroline,2.0 mg %; trypsin inhibitor, 10.0 mg % and 0.1 mM PMSF, 20.0 μl of [phenylalanyl-3,4,5-^3 H] vasopressin (S.A. 45.1 Ci/mmole) at 0.8 nM, and the reaction initiated by the addition of 80 μl of tissue membranes containing 20 μg of tissue protein. The plates are kept undisturbed on the bench top at room temperature for 120 min. to reach equilibrium. Non-specific samples are assayed in the presence of 0.1 μM of the unlabeled antagonist phenylalanylvasopressin, added in 20.0 μl volume to a final incubation volume of 200 μl. Upon completion of binding, the content of each well is filtered off, using a Brandel® cell Harvester (Gaithersburg, Md.). The radioactivity trapped on the filter disk by the ligand-receptor complex is assessed by liquid scintillation counting in a Packard LS Counter, with an efficiency of 65% for tritium. The data are analyzed for IC50 values by the LUNDON-2 program for competition (LUNDON SOFTWARE, Ohio).

The subject of assay [4] is Vasopressin V2. Kind of assay: Vasopressin V2 Antagonist Activity in Conscious Hydrated Rats. The settings on record: 10 mg/kg orally, N = 2, AVP 0.4 μg/kg intraperitoneally. In kind it is in vivo, rat. The procedure: Vasopressin V2 Antagonist Activity in Conscious Hyrdated Rats
Conscious hydrated rats are treated with compounds under study from 0.1 to 100 mg/kg orally or vehicle. Two to four rats are used for each compound. One hour later, arginine vasopressin (AVP, antidiuretic hormone, ADH) dissolved in peanut oil is administered at 0.4 μg/kg intraperitoneally. Two rats in each test would not receive arginine vasopressin but only the vehicle (peanut oil) to serve as water-loading control. Twenty minutes later each rat is given 30 mL/kg of deionized water orally by gavage and is placed individually in a metabolic cage equipped with a funnel and a graduated glass cylinder to collect urine for four hours. Urine volume is measured and osmolality analyzed by use of a Fiske One-Ten osmometer (Fiske Assoc., Norwood, Mass. U.S.A.). Urinary sodium, potassium, and chloride are analyzed by use of ion-specific electrodes in a Beckman E3(Electrolyte 3) Analyzer.
In the following results, […] and decreased osmolality relative to AVP-control indicates activity.

T1 sequence (Q00788 whole entry): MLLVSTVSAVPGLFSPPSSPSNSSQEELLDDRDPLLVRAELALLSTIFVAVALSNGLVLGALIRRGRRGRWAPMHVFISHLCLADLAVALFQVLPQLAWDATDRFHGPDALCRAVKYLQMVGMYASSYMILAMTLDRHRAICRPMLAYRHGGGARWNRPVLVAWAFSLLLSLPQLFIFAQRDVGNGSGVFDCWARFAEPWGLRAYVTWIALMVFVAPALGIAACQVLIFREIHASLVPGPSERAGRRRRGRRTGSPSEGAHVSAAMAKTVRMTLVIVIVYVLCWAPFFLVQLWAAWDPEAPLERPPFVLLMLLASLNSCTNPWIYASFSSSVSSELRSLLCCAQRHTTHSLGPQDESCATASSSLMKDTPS

Usually IC50 stands for the concentration that gives 50% inhibition. Read a high IC50 as weaker potency in that assay. One may read the inhibition as how much of the control response was suppressed. Take `Cn1cc2c(n1)-c1sccc1N(C(=O)c1ccc(NC(=O)C3CCCCC3)cc1)CC2` [Example 6, N-[4-[[4,5-Dihydro-2-methylpyrazolo[3,4-d]thieno[3,2-b]-azepin-6(2H)-yl]carbonyl]phenyl]cyclohexane carboxamide]: the IC50 in assay [1] is 0.23 µM; in assay [2] it was 1700 nM; in assay [3] it was 4.7 µM. The compound also registered an inhibition at 10 µM in assay [2] of 94%.
Take `Cc1ccc(F)cc1C(=O)Nc1ccc(C(=O)N2CCc3cn[nH]c3-c3sccc32)cc1` [Example 2, N-[4-[(4,5-Dihydropyrazolo[3,4-d]thieno[3,2-b]azepin-6(1H)-yl)carbonyl]phenyl]-5-fluoro-2methylbenzamide]: in assay [2], the IC50 came to 1300 nM and the inhibition at 10 µM worked out at 91%. For the same compound, the IC50 in assay [3] is 1.7 µM. In assay [4], the “Urine Vol. (ml/4 hrs.)” value is on record as 17.8 ml/4 hrs. For the same compound, in assay [4] (urine), the “Osmolality (mOsm/kg)” value is on record as 429 mOsm/kg.
